What is called solubility is the concentration that dissolves in the medium under given conditions.

In brackets after ≈: the same amount, converted by molar mass.

A short description of one data set: Determination of the water solubility by UV/visible spectroscopy. The data set is classed as physicochemical. The note with it: 23 °C, thermodynamic from solid; saturated solution in deionized water, 23±2° C.; read-out: Solubility. As to the method: The water solubility was determined in deionized water by UV/visible spectroscopy. The spectra were recorded with a UV/visible spectrometer (Evolution 600, Thermo Scientific) between 200-900 nm. The measurement was carried out in quartz cells (path length 10 mm). The pure solvent deionized water was used for the background spectrum. The background spectrum was subtracted from the spectra of the coinitiators.
Dilute solutions of the different coinitiators with known concentrations were prepared in deionized water. The absorption of the different coinitiators was measured in the absorption maximum (between 290-310 nm) and a linear relationship between the known concentrations and the measured absorptions was determined.
Saturated aqueous solutions of the coinitiators were diluted up to the point that the measured absorption falls in the linear region found above. The concentrations of the coinitiators in the saturated aqueous solutions are determined via the Lambert-Beer law.
For `CCCCOCCOC(=O)c1ccc(N(C)C)cc1` [2-(n-Butoxy)ethyl 4-dimethylaminobenzoate], the solubility was 35 µg/mL (≈ 132 µM).

On to `COCCNC(=O)c1ccc(N(C)C)cc1` [4-Dimethylamino-N-(2-methoxyethyl)benzamide], for which the solubility was 2670 µg/mL (≈ 12000 µM).

In the case of `CCCNC(=O)c1ccc(N(C)C)cc1` [4-Dimethylamino-N-propylbenzamide], the solubility was determined as 680 µg/mL (≈ 3300 µM).

As to `CN(C)c1ccc(C(N)=O)cc1` [4-Dimethylaminobenzamide], the solubility turned out to be 427 µg/mL (≈ 2600 µM).

As to `CN(C)c1ccc(C#N)cc1` [4-Dimethylaminobenzonitrile], the solubility came to 278 µg/mL (≈ 1900 µM).

In the case of `CCCCC(CC)COC(=O)c1ccc(N(C)C)cc1` (centres unmarked) [EHA, 2-Ethylhexyl 4-dimethylaminobenzoate], the solubility came out at 26 µg/mL (≈ 93.7 µM).

For `CCOC(=O)c1ccc(N(C)C)cc1` [Ethyl 4-dimethylaminobenzoate], the solubility worked out at 36 µg/mL (≈ 186 µM).

Staying with this data set, now noted: saturated solution in deionized water, 23±2° C.
For the compound “Polyethylene glycol monomethyl ether 4-dimethylaminobenzoate [PEGA]”, the solubility is above 766000 µg/mL.

(Values after patent US10058487B2, “Polymerizable dental material” (Muhlbauer Technology GmbH, priority 2014, dated 2018).)
